Assay results published in PMC3702004, “Comparison of Intake and Systemic Relative Effect Potencies of Dioxin-like Compounds in Female Mice after a Single Oral Dose” (Environmental Health Perspectives, 2013).

How the values were obtained:
[1] = Compound analysis: liver, adipose and plasma concentrations 3 days after a single oral dose; format: in vivo, female C57BL/6 mice; settings: for liver:adipose ratio (hepatic sequestration criterion 0.3) / tissue uptake / Adipose % dose / g tissue / Liver % dose / g tissue / Plasma % dose / g tissue: 3 days after single oral dose; for liver:adipose ratio (hepatic sequestration criterion 0.3): Table 1 doses; for Liver:adipose ratio: based on ng/g tissue, day 3; for tissue uptake: female, C57BL/6, mouse, in vivo
Method: (§1) Animals. Eight-week-old female C57BL/6 mice (Harlan laboratories, Venray, the Netherlands) were randomly assigned to treatment groups (six animals per group) and allowed to acclimate for 1.5 weeks. The animals were housed in groups in standard cages and conditions (23 ± 2°C, 50–60% relative humidity, 12-hr dark/light cycle) with free access to food and water. Mice received a single dose of test compound by oral gavage at a dosing volume of 10 mL/kg body weight (BW). Mice treated with corn oil vehicle (10 mL/kg BW) served as controls. For each congener, five different doses were administered, ranging from 0.5–100 μg/kg BW (TCDD) to 5,000–500,000 µg/kg BW (PCB-153). Detailed information on doses is provided in Supplemental Material, Table S1 (http://dx.doi.org/10.1289/ehp.1206336). On day 3 after dosing, animals were euthanized by CO2/O2 asphyxiation, and blood was immediately collected from the abdominal aorta. The liver, thymus, spleen, and adipose tissue were removed, weighed (liver, thymus, and spleen), snap frozen, and stored at –80°C. All animal treatments were performed with permission of the Animal Ethical Committee (DEC Utrecht) and performed according to the [Law on Animal Experiments (1977)]. Animals were treated humanely and with regard for alleviation of suffering.
(§2) Compound analysis. Adipose and liver tissues samples were homogenized in Na2SO4, followed by extraction and clean-up in one step, and then eluted with 200 mL 1:1 hexane:dichloromethane on an open column packed with 40% wt/wt H2SO4-impregnated silica and KOH-silica. Blood plasma samples were extracted on an open column using Chem-Elut (Agilent Technologies, Santa Clara, CA, USA) and then NaCl eluted with 75 mL 3:2 hexane:2-propanol. Clean-up was performed using a miniaturized silica column (as described above), and samples were eluted using 30 mL hexane. Because the samples typically contained high levels of the analytes, only a small fraction was evaporated and analyzed. Prior to evaporation, we spiked a fraction of the samples with ^13C-labeled standards. We checked potential loss of analytes during extraction and clean-up by reextracting the samples using the identical protocol used for the samples. […] Tetradecane was added prior to evaporation. Sample analysis followed the U.S. Environmental Protection Agency Method 1613 ([U.S. Environmental Protection Agency 1994]) using single ion monitoring mode on an Agilent 6809N gas chromatograph (Agilent Technologies) coupled with a Micromass Ultima Autospec Ultra high-resolution mass spectrometer (HRMS; Waters Corp., Milford, MA, USA). Compounds were separated on a 60 m × 0.25 mm DB5-MS column ([…]; J&W Scientific, Folsom, CA, USA). The HRMS was operated with electron impact ionization with electron energy of 35 eV and an ion source temperature of 250°C. To reduce the number of analyses, samples were pooled before clean-up. […] This method was used because full congener–specific separation could be achieved on the high-resolution GC–HRMS. For lipid determination, samples were evaporated to dryness after the extraction step, and the amount of lipids was determined gravimetrically. Concentrations were calculated based on lipid weight and wet weight. The analysis of samples for the PCB-118 5,000 μg/kg BW dose failed during the procedure; thus analysis for this group could not be completed.
Plasma and PBL isolation. Blood from two mice was pooled (total volume of approximately 1.4 mL); plasma and PBLs were then isolated using Ficoll Paque gradient (GE Healthcare Europe, Diegem, Belgium). Plasma samples were stored at –80°C until compound analysis. Isolated lymphocytes were lysed with RLT buffer (QIAGEN, Venlo, the Netherlands) as described in the QIAGEN RNAeasy kit protocol and stored at –80°C until use.

[2] = Body and organ weight, hepatic lipid content; format: in vivo, female C57BL/6 mice; settings: day 3; for % lipid / g liver: pooled liver samples
Method: as §1, §2
Statistical analysis. Statistical significant differences of the means and variances were determined using one-way analysis of variance (ANOVA) followed by Tukey-Kramer multiple comparisons. Differences were considered statistically significant at p < 0.05. Statistical calculations were performed using GraphPad 6.01 (GraphPad Software Inc.).

For `Clc1cc(Cl)c(-c2cc(Cl)c(Cl)cc2Cl)cc1Cl` [PCB-153, 2,2´,4,4´,5,5´-hexachlorobiphenyl], which “liver:adipose ratio (hepatic sequestration criterion 0.3)” value [1] is on record?
Its value is < 0.3.

And the “Liver:adipose ratio” value ([1]; dose 5,000 μg/kg BW)?
The value was 0.08±0.02.

And the “Liver:adipose ratio” value ([1]; dose 15,000 μg/kg BW)?
The value was 0.11±0.02.

And the “Liver:adipose ratio” value ([1]; dose 50,000 μg/kg BW)?
The value was 0.08±0.03.

What about the tissue uptake ([1]; oral dose 5000 µg/kg bw) of the same compound?
Its tissue uptake is 0.075 %ID/g.

What about the “Adipose % dose / g tissue” value ([1]; oral dose 5000 µg/kg bw) of the same compound?
Its value is 23 % dose / g tissue.

What about the “Liver % dose / g tissue” value ([1]; oral dose 5000 µg/kg bw) of the same compound?
Its value is 1.8 % dose / g tissue.

What about the “Adipose % dose / g tissue” value ([1]; oral dose 15000 µg/kg bw) of the same compound?
The value was 25 % dose / g tissue.

What about the “Liver % dose / g tissue” value ([1]; oral dose 15000 µg/kg bw) of the same compound?
The value was 2.5 % dose / g tissue.

What about the “Plasma % dose / g tissue” value ([1]; oral dose 15000 µg/kg bw) of the same compound?
Its value is 0.052 % dose / g tissue.

What about the “Adipose % dose / g tissue” value ([1]; oral dose 50000 µg/kg bw) of the same compound?
Its value is 25 % dose / g tissue.

And the “Liver % dose / g tissue” value ([1]; oral dose 50000 µg/kg bw)?
Its value is 2.0 % dose / g tissue.

What about the “Plasma % dose / g tissue” value ([1]; oral dose 50000 µg/kg bw) of the same compound?
The value was 0.060 % dose / g tissue.

What about the “Plasma % dose / g tissue” value ([1]; oral dose 150000 µg/kg bw) of the same compound?
The value was 0.050 % dose / g tissue.

And the “Plasma % dose / g tissue” value ([1]; oral dose 500000 µg/kg bw)?
The value was 0.042 % dose / g tissue.

And the Body weight ([2]; oral dose 5000 µg/kg bw)?
Its Body weight is 18.8 ± 1.1 gram.

And the Liver weight ([2]; oral dose 5000 µg/kg bw)?
Its Liver weight is 4.71 ± 0.34 % of bw.

And the Spleen weight ([2]; oral dose 5000 µg/kg bw)?
The Spleen weight was 0.30 ± 0.04 % of bw.

And the Thymus weight ([2]; oral dose 5000 µg/kg bw)?
The Thymus weight was 0.25 ± 0.05 % of bw.

And the “% lipid / g liver” value ([2]; oral dose 5000 µg/kg bw)?
The value was 3.3%.

And the Body weight ([2]; oral dose 15000 µg/kg bw)?
The Body weight was 19.1 ± 0.5 gram.

What about the Liver weight ([2]; oral dose 15000 µg/kg bw) of the same compound?
Its Liver weight is 4.96 ± 0.10 % of bw.

And the Spleen weight ([2]; oral dose 15000 µg/kg bw)?
Its Spleen weight is 0.36 ± 0.04 % of bw.

What about the Thymus weight ([2]; oral dose 15000 µg/kg bw) of the same compound?
The Thymus weight was 0.26 ± 0.04 % of bw.

And the “% lipid / g liver” value ([2]; oral dose 15000 µg/kg bw)?
Its value is 3.9%.

And the Body weight ([2]; oral dose 50000 µg/kg bw)?
The Body weight was 19.6 ± 0.8 gram.

And the Liver weight ([2]; oral dose 50000 µg/kg bw)?
Its Liver weight is 5.15 ± 0.38 % of bw.

And the Spleen weight ([2]; oral dose 50000 µg/kg bw)?
Its Spleen weight is 0.33 ± 0.04 % of bw.

What about the Thymus weight ([2]; oral dose 50000 µg/kg bw) of the same compound?
Its Thymus weight is 0.29 ± 0.03 % of bw.

What about the “% lipid / g liver” value ([2]; oral dose 50000 µg/kg bw) of the same compound?
Its value is 3.4%.

And the Body weight ([2]; oral dose 150000 µg/kg bw)?
Its Body weight is 19.9 ± 1.1 gram.

What about the Liver weight ([2]; oral dose 150000 µg/kg bw) of the same compound?
The Liver weight was 5.47 ± 0.37 % of bw.

What about the Spleen weight ([2]; oral dose 150000 µg/kg bw) of the same compound?
Its Spleen weight is 0.34 ± 0.05 % of bw.

And the Thymus weight ([2]; oral dose 150000 µg/kg bw)?
The Thymus weight was 0.25 ± 0.04 % of bw.

What about the Body weight ([2]; oral dose 500000 µg/kg bw) of the same compound?
Its Body weight is 18.8 ± 0.7 gram.

And the Liver weight ([2]; oral dose 500000 µg/kg bw)?
Its Liver weight is 5.80 ± 0.30 % of bw.

And the Spleen weight ([2]; oral dose 500000 µg/kg bw)?
The Spleen weight was 0.33 ± 0.05 % of bw.

What about the Thymus weight ([2]; oral dose 500000 µg/kg bw) of the same compound?
Its Thymus weight is 0.24 ± 0.04 % of bw.

What about the “Dose with significant increase in liver weight vs vehicle controls” value ([2]; single oral dose) of the same compound?
Its value is ≥ 500,000 µg/kg BW.

What about the “Dose with statistically significant decrease in relative thymus weight vs vehicle controls” value ([2]; single oral dose) of the same compound?
The value was 500,000 μg/kg BW.

Which results are given for `Clc1ccc(-c2cc(Cl)c(Cl)c(Cl)c2Cl)cc1Cl` [PCB-156, 2,3,3´,4,4´,5-hexachlorobiphenyl]?
liver:adipose ratio (hepatic sequestration criterion 0.3) [1]: < 0.3; Liver:adipose ratio ([1]; dose 5,000 μg/kg BW): 0.09±0.02; Liver:adipose ratio ([1]; dose 15,000 μg/kg BW): 0.11±0.03; Liver:adipose ratio ([1]; dose 50,000 μg/kg BW): 0.12±0.02; tissue uptake ([1]; oral dose 5000 µg/kg bw): 0.079 %ID/g; Adipose % dose / g tissue ([1]; oral dose 5000 µg/kg bw): 25 % dose / g tissue; Liver % dose / g tissue ([1]; oral dose 5000 µg/kg bw): 2.2 % dose / g tissue; Adipose % dose / g tissue ([1]; oral dose 15000 µg/kg bw): 22 % dose / g tissue; Liver % dose / g tissue ([1]; oral dose 15000 µg/kg bw): 2.3 % dose / g tissue; Plasma % dose / g tissue ([1]; oral dose 15000 µg/kg bw): 0.061 % dose / g tissue; Adipose % dose / g tissue ([1]; oral dose 50000 µg/kg bw): 34 % dose / g tissue; Liver % dose / g tissue ([1]; oral dose 50000 µg/kg bw): 4.1 % dose / g tissue; Plasma % dose / g tissue ([1]; oral dose 50000 µg/kg bw): 0.066 % dose / g tissue; Liver % dose / g tissue ([1]; oral dose 150000 µg/kg bw): 3.0 % dose / g tissue; Plasma % dose / g tissue ([1]; oral dose 150000 µg/kg bw): 0.045 % dose / g tissue; Plasma % dose / g tissue ([1]; oral dose 500000 µg/kg bw): 0.037 % dose / g tissue; Body weight ([2]; oral dose 5000 µg/kg bw): 17.7 ± 0.7 gram; Liver weight ([2]; oral dose 5000 µg/kg bw): 4.71 ± 0.43 % of bw; Spleen weight ([2]; oral dose 5000 µg/kg bw): 0.27 ± 0.03 % of bw; Thymus weight ([2]; oral dose 5000 µg/kg bw): 0.21 ± 0.05 % of bw; % lipid / g liver ([2]; oral dose 5000 µg/kg bw): 3.0%; Body weight ([2]; oral dose 15000 µg/kg bw): 18.7 ± 1.3 gram; Liver weight ([2]; oral dose 15000 µg/kg bw): 5.14 ± 0.41 % of bw; Spleen weight ([2]; oral dose 15000 µg/kg bw): 0.30 ± 0.03 % of bw; Thymus weight ([2]; oral dose 15000 µg/kg bw): 0.23 ± 0.04 % of bw; % lipid / g liver ([2]; oral dose 15000 µg/kg bw): 3.3%; Body weight ([2]; oral dose 50000 µg/kg bw): 18.0 ± 0.9 gram; Liver weight ([2]; oral dose 50000 µg/kg bw): 5.96 ± 0.62 % of bw; Spleen weight ([2]; oral dose 50000 µg/kg bw): 0.31 ± 0.04 % of bw; Thymus weight ([2]; oral dose 50000 µg/kg bw): 0.25 ± 0.02 % of bw; % lipid / g liver ([2]; oral dose 50000 µg/kg bw): 5.7%; Body weight ([2]; oral dose 150000 µg/kg bw): 19.2 ± 1.1 gram; Liver weight ([2]; oral dose 150000 µg/kg bw): 6.79 ± 0.51 % of bw; Spleen weight ([2]; oral dose 150000 µg/kg bw): 0.29 ± 0.02 % of bw; Thymus weight ([2]; oral dose 150000 µg/kg bw): 0.21 ± 0.04 % of bw; % lipid / g liver ([2]; oral dose 150000 µg/kg bw): 6.8%; Body weight ([2]; oral dose 500000 µg/kg bw): 18.7 ± 0.6 gram; Liver weight ([2]; oral dose 500000 µg/kg bw): 8.10 ± 0.17 % of bw; Spleen weight ([2]; oral dose 500000 µg/kg bw): 0.33 ± 0.03 % of bw; Thymus weight ([2]; oral dose 500000 µg/kg bw): 0.18 ± 0.05 % of bw; Dose with significant increase in liver weight vs vehicle controls ([2]; single oral dose): ≥ 50,000 µg/kg BW
